Results published in article PMC12350525, “Investigation of the inhibitory effects of the telomere-targeted compounds on glutathione S-transferase P1” (Naunyn-Schmiedeberg's Archives of Pharmacology, 2025).
Read-outs that look alike come from different tables or passages of the source.

Assays:
recombinant human GSTP1 = molecular target: T1, recombinant human GSTP1 (Homo sapiens, UniProt P09211); test: GSTP1 enzyme inhibition assay (GSH-CDNB conjugation, spectrophotometric); assay type: biochemical
T1 construct: made in house; host or cells: E. coli XL-1 Blue
T1 sequence (P09211 whole entry): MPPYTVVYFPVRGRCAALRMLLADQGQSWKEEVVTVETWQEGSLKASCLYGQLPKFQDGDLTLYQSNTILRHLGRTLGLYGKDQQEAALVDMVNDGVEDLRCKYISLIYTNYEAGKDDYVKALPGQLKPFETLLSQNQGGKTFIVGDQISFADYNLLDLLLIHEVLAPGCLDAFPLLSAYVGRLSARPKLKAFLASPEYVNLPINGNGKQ
Description: Glutathione S-transferase P1 (GSTP1) plays a significant role in cancer progression and chemotherapy resistance, with its overexpression diminishing chemotherapeutic efficacy across various tumor types. […] Enzyme inhibition assays with recombinant human GSTP1, kinetic analysis, molecular docking, and molecular dynamic simulations were employed. Enzymatic assays were performed in 0.1 M phosphate buffer (pH 6.5) at 30 °C, containing 1 mM EDTA, 1 mM GSH, and 1 mM CDNB. […] Graphical abstract
The human GST P1-1 gene from a K562 erythroleukemia cDNA library (GSTP1*A allele) was cloned into the pKXHP1 plasmid. This plasmid was transformed into E. coli XL-1 Blue cells via heat shock, grown on agar plates, and a single colony was cultured overnight at 37 °C in 2YT medium. […]
The enzyme activity of GSTP1 was measured using a spectrophotometric assay based on the conjugation of glutathione (GSH) to 1-chloro-2,4-dinitrobenzene (CDNB). […] The progress of the reaction was monitored by measuring the absorbance change at 340 nm, indicating the formation of the GSH-CDNB conjugate. Absorbance readings were recorded over 5 min using a SpectraMax M2 microplate reader. Percentage inhibition at each concentration was calculated, and IC₅₀ values were determined using GraphPad Prism 8.4. […]

GSTP1-1 = molecular target: T2, GSTP1-1 (Homo sapiens, UniProt P09211); test: Kinetic inhibition studies with GSTP1 (Lineweaver-Burk, varied GSH or CDNB); assay type: biochemical
T2 construct: made in house; host or cells: E. coli XL-1 Blue
T2 sequence (P09211 whole entry): as above
Description: To assess the inhibition type and calculate the inhibition constant (Ki) values for the compounds, kinetic inhibition studies were performed with GSTP1.
By varying the concentration of one substrate while keeping the other at near-saturation, we assessed how each inhibitor interacted with GSTP1 under various substrate conditions. Lineweaver-Burk plots were used to analyze these interactions, allowing for the determination of the inhibition type (e.g., competitive, non-competitive, or mixed) and the Ki values for each compound. These kinetic parameters were calculated using GraphPad Prism, providing a comprehensive understanding of how the inhibitors influence GSTP1 enzymatic activity.
These plots were generated by varying the concentrations of substrates GSH and CDNB with different inhibitor concentrations.

GSTP1 = conditions: covalent binding to tyrosine residues on GSTP1; ref Louie et al. 2016; cited from earlier work
[1] = CDNB as varied substrate, GSH near-saturating, read-out: Ki CDNB
[2] = GSH as varied substrate, CDNB near-saturating, read-out: Ki GSH

Row | Structure (SMILES) | IC50 (recombinant human GSTP1; as restated in the discussion) [nM] | Type of inhibition CDNB (GSTP1-1; CDNB as varied substrate) | Ki (GSTP1-1; [1]) [nM] | Type of inhibition GSH (GSTP1-1; GSH as varied substrate) | Ki (GSTP1-1; [2]) [nM] | Type of inhibition GSH (GSTP1-1; GSH as varied substrate, listed as dimer form) | IC50 (recombinant human GSTP1; 0.1 M phosphate buffer pH 6.5, 30 °C, 1 mM EDTA, 1 mM GSH, 1 mM CDNB, 2.5% DMSO) [nM] | IC50 (GSTP1) [nM]
1 | Nc1nc(SSc2nc(N)nc3c2ncn3C2CC(O)C(CO)O2)c2ncn(C3CC(O)C(CO)O3)c2n1 (stereo not drawn) [6-thio-2′-dG-Dimer] | 339 | Competitive | 723 | Mixed | 972 | mixed-type | – | –
2 | Nc1nc2c(ncn2[C@H]2C[C@H](O)[C@@H](CO)O2)c(=S)[nH]1 [Compound 6-thio-dG, 6-thio-2′-deoxyguanosine] | – | mixed-type | 11400 | Noncompetitive | 12300 | – | 15100 | –
3 | C#CCCCN(c1nc(Cl)nc(Cl)n1)[C@H](CC(C)C)C(=O)OC [LAS17] | – | – | – | – | – | – | – | 500
